# Reference: PubChem BioAssay (NCI)
#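 Values below derive from 48-hour exposures of cells grown in 96-well plates, with endpoints linearly interpolated between the two concentrations bracketing the appropriate inhibition level. At the GI50, growth is halved. TGI denotes the concentration required for complete inhibition of growth.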
# Key:
# Test in all cases: NCI anticancer screen, dose series, 48 h
# [1] = test system: COLO 205 colon
# [2] = test system: HCT-15 colon
# [3] = test system: SF-295 CNS
# [4] = test system: SK-MEL-28 melanoma
# [5] = test system: SNB-75 CNS
# [6] = test system: A498 renal
# [7] = test system: HT29 colon
# [8] = test system: M14 melanoma
# [9] = test system: CAKI-1 renal
# [10] = test system: UO-31 renal
# [11] = test system: OVCAR-5 ovarian
# [12] = test system: MDA-MB-435
# [13] = test system: MDA-MB-231 breast
# [14] = test system: SN12C renal
# [15] = test system: KM12 colon
# [16] = test system: SW-620 colon
# [17] = test system: MALME-3M melanoma
# [18] = test system: RPMI-8226 leukemia
# [19] = test system: SF-539 CNS
# [20] = test system: NCI-H522 lung
# [21] = test system: SK-OV-3 ovarian
# [22] = test system: DU-145 prostate
# [23] = test system: OVCAR-3 ovarian
# [24] = test system: RXF 393 renal
# [25] = test system: SK-MEL-5 melanoma
structure (smiles),measurement,setting,value
N=C(N)c1ccc(-c2ccc(-c3cncc4ccccc34)s2)cc1F,GI50,[1],1870 nM
same,TGI,[1],3940 nM
same,GI50,[2],1750 nM
same,TGI,[2],3640 nM
same,GI50,[3],1720 nM
same,TGI,[3],3270 nM
same,GI50,[4],1750 nM
same,TGI,[4],3410 nM
same,GI50,[5],1730 nM
same,TGI,[5],3140 nM
same,GI50,[6],1060 nM
same,TGI,[6],2500 nM
same,GI50,[7],1680 nM
same,TGI,[7],4480 nM
same,GI50,[8],1800 nM
same,TGI,[8],3400 nM
same,GI50,[9],1520 nM
same,TGI,[9],2910 nM
same,GI50,[10],1770 nM
same,TGI,[10],3410 nM
same,GI50,[11],1600 nM
same,TGI,[11],3100 nM
same,GI50,[12],1860 nM
same,TGI,[12],3490 nM
same,GI50,[13],1400 nM
same,TGI,[13],3120 nM
same,GI50,[14],1850 nM
same,TGI,[14],3650 nM
same,GI50,[15],1830 nM
same,TGI,[15],3510 nM
same,GI50,[16],1690 nM
same,TGI,[16],3760 nM
same,GI50,[17],1740 nM
same,TGI,[17],3510 nM
same,GI50,[18],1640 nM
same,TGI,[18],4490 nM
same,GI50,[19],1600 nM
same,TGI,[19],3040 nM
same,GI50,[20],2200 nM
same,TGI,[20],5560 nM
same,GI50,[21],1840 nM
same,TGI,[21],3630 nM
same,GI50,[22],1860 nM
same,TGI,[22],3450 nM
same,GI50,[23],1730 nM
same,TGI,[23],3240 nM
same,GI50,[24],1750 nM
same,TGI,[24],3670 nM
same,GI50,[25],1750 nM
same,TGI,[25],3260 nM
